Data taken from paper PMC10817512, “OSMAC-Based Discovery and Biosynthetic Gene Clusters Analysis of Secondary Metabolites from Marine-Derived Streptomyces globisporus SCSIO LCY30” (Marine Drugs, 2023).
Read-outs that look alike come from different tables or passages of the source.

How the values were obtained:
[1] = system: Bacillus subtilis; design: method as in PMID 18396903; conditions: ref [35]; cited from earlier work
[2] = system: cervical cancer cell line Hela; assay: Cell growth inhibitory (cytotoxic) activity assay; type: cell-based, human
Excerpt: (§1) The cell growth inhibitory activities of compounds 1–3 against fourteen different human cell lines (human liver cell line LX-2; hepatocellular cancer line HEPG2; human intestinal epithelial cell line NCM460; colorectal cancer cell lines HCT116 and SW480; normal human breast cell line MCF-10A; breast cancer cell line MCF7; triple-negative breast cancer cell lines MDA-MB-231, MDA-MB-468, and Bt-549; human umbilical vein endothelial cell line; lung cancer cell line A549; cervical cancer cell line Hela; and cholangiocarcinoma cell line RBE) were tested according to the previously published methods. SPSS software version 22.0 was used to test the IC50 values. Cisplatin and adriamycin were used as positive control agents, and all the experiments were carried out in triplicate.

[3] = system: cholangiocarcinoma cell line RBE; assay: Cell growth inhibitory (cytotoxic) activity assay; type: cell-based, human
Excerpt: as §1

[4] = system: colorectal cancer cell line HCT116; assay: Cell growth inhibitory (cytotoxic) activity assay; type: cell-based, human
Excerpt: as §1

[5] = system: colorectal cancer cell line SW480; assay: Cell growth inhibitory (cytotoxic) activity assay; type: cell-based, human; conditions: SW480 (colorectal cancer)
Excerpt: as §1

[6] = system: hepatocellular cancer line HEPG2; assay: Cell growth inhibitory (cytotoxic) activity assay; type: cell-based, human
Excerpt: as §1

[7] = system: lung cancer cell line A549; assay: Cell growth inhibitory (cytotoxic) activity assay; type: cell-based, human
Excerpt: as §1

[8] = system: triple-negative breast cancer cell line Bt-549; assay: Cell growth inhibitory (cytotoxic) activity assay; type: cell-based, human; conditions: for IC50: Bt-549 (TNBC)
Excerpt: as §1

[9] = system: triple-negative breast cancer cell line MDA-MB-231; assay: Cell growth inhibitory (cytotoxic) activity assay; type: cell-based, human; conditions: for IC50: MDA-MB-231 (TNBC)
Excerpt: as §1

[10] = system: triple-negative breast cancer cell line MDA-MB-468; assay: Cell growth inhibitory (cytotoxic) activity assay; type: cell-based, human; conditions: for IC50: MDA-MB-468 (TNBC)
Excerpt: as §1

[11] = system: human intestinal epithelial cell line NCM460; assay: Cell growth inhibitory (cytotoxic) activity assay; type: cell-based; conditions: NCM460 (normal intestinal epithelial cell line)
Excerpt: as §1

[12] = system: human liver cell line LX-2; assay: Cell growth inhibitory (cytotoxic) activity assay; type: cell-based; conditions: LX-2 (human liver cell line)
Excerpt: as §1

[13] = system: human umbilical vein endothelial cell line HUVEC; assay: Cell growth inhibitory (cytotoxic) activity assay; type: cell-based
Excerpt: as §1

[14] = system: normal human breast cell line MCF-10A; assay: Cell growth inhibitory (cytotoxic) activity assay; type: cell-based; conditions: MCF-10A (normal human breast cell line)
Excerpt: as §1

[15] = system: Staphylococcus simulans AKA1; assay: Antibacterial MIC, CLSI microdilution; type: cell-based; conditions: Staphylococcus simulans AKA1; 37 °C, 16–18 h
[16] = system: Bacillus subtilis BS01; assay: Antibacterial MIC, CLSI microdilution; type: cell-based; conditions: Bacillus subtilis BS01; 37 °C, 16–18 h
Experimental: (§2) An antibacterial activity test of compounds 1–3 was conducted according to a standard protocol provided by the Clinical and Laboratory Standards Institute (CLSI). Sixteen bacterial strains were used, including Staphylococcus aureus ATCC 29213, Staphylococcus aureus 16339, Staphylococcus aureus 1862, Staphylococcus aureus 3090, Staphylococcus aureus 991, Staphylococcus aureus 669, Staphylococcus aureus 745324, Staphylococcus aureus 16162, Staphylococcus aureus (cfr) GDE4P037P, Enterococcus faecalis ATCC 29212, Enterococcus faecalis 36950, Micrococcus luteus ML01, MRSA, Bacillus subtilis BS01, Enterococcus gallinarum 5F52C, and Enterococcus faecium 36711. Compounds 1–3 were dissolved in DMSO at a concentration of 3.2 mg/mL, and vancomycin and ampicilin were used as antibacterial control agents. […] All the assays were carried out in triplicate.

[17] = system: Enterococcus faecalis 36950; assay: Antibacterial MIC, CLSI microdilution; type: cell-based; conditions: Enterococcus faecalis 36950; 37 °C, 16–18 h
Experimental: as §2

[18] = system: Enterococcus faecalis ATCC 29212; assay: Antibacterial MIC, CLSI microdilution; type: cell-based; conditions: Enterococcus faecalis ATCC 29212; 37 °C, 16–18 h
Experimental: as §2

[19] = system: Enterococcus faecium 36711; assay: Antibacterial MIC, CLSI microdilution; type: cell-based; conditions: Enterococcus faecium 36711; 37 °C, 16–18 h
Experimental: as §2

[20] = system: Enterococcus gallinarum 5F52C; assay: Antibacterial MIC, CLSI microdilution; type: cell-based; conditions: Enterococcus gallinarum 5F52C; 37 °C, 16–18 h
Experimental: as §2

[21] = system: Micrococcus luteus ML01; assay: Antibacterial MIC, CLSI microdilution; type: cell-based; conditions: Micrococcus luteus ML01; 37 °C, 16–18 h
Experimental: as §2

[22] = system: Staphylococcus aureus (cfr) GDE4P037P; assay: Antibacterial MIC, CLSI microdilution; type: cell-based; conditions: Staphylococcus aureus (cfr) GDE4P037P; 37 °C, 16–18 h
Experimental: as §2

[23] = system: Staphylococcus aureus 16162; assay: Antibacterial MIC, CLSI microdilution; type: cell-based; conditions: Staphylococcus aureus 16162; 37 °C, 16–18 h
Experimental: as §2

[24] = system: Staphylococcus aureus 16339; assay: Antibacterial MIC, CLSI microdilution; type: cell-based; conditions: Staphylococcus aureus 16339; 37 °C, 16–18 h
Experimental: as §2

[25] = system: Staphylococcus aureus 1862; assay: Antibacterial MIC, CLSI microdilution; type: cell-based; conditions: Staphylococcus aureus 1862; 37 °C, 16–18 h
Experimental: as §2

[26] = system: Staphylococcus aureus 3090; assay: Antibacterial MIC, CLSI microdilution; type: cell-based; conditions: Staphylococcus aureus 3090; 37 °C, 16–18 h
Experimental: as §2

[27] = system: Staphylococcus aureus 669; assay: Antibacterial MIC, CLSI microdilution; type: cell-based; conditions: Staphylococcus aureus 669; 37 °C, 16–18 h
Experimental: as §2

[28] = system: Staphylococcus aureus 745324; assay: Antibacterial MIC, CLSI microdilution; type: cell-based; conditions: Staphylococcus aureus 745324; 37 °C, 16–18 h
Experimental: as §2

[29] = system: Staphylococcus aureus 991; assay: Antibacterial MIC, CLSI microdilution; type: cell-based; conditions: Staphylococcus aureus 991; 37 °C, 16–18 h
Experimental: as §2

[30] = system: Staphylococcus aureus ATCC 29213; assay: Antibacterial MIC, CLSI microdilution; type: cell-based; conditions: Staphylococcus aureus ATCC 29213; 37 °C, 16–18 h
Experimental: as §2

[31] = system: MRSA; assay: Antibacterial MIC, CLSI microdilution; type: cell-based, Staphylococcus aureus; conditions: 37 °C, 16–18 h
Experimental: as §2

[32] = system: breast cancer cell line MCF7; assay: Cell growth inhibitory (cytotoxic) activity assay; type: cell-based, human
Excerpt: SPSS software version 22.0 was used to test the IC50 values.

Molecule: streptophenazine H
- MIC [1]: 15.6 µg/mL

Molecule: COc1cccc2c1C(=O)c1c(O)c3c(c(O)c1C2=O)C[C@@](O)(C(=O)CO)C[C@@H]3O[C@H]1C[C@H](N)[C@H](O)[C@H](C)O1 [Adriamycin, reference compound]
- IC50 ([2]; Homo sapiens): 7020 nM
- IC50 ([3]; Homo sapiens): 4260 nM
- IC50 ([4]; Homo sapiens, HCT-116): 1540 nM
- IC50 ([5]; Homo sapiens): 17500 nM
- IC50 ([6]; Homo sapiens): 15500 nM
- IC50 ([7]; Homo sapiens): 1510 nM
- IC50 ([8]; Homo sapiens): 3750 nM
- IC50 ([9]; Homo sapiens): 4040 nM
- IC50 ([10]; Homo sapiens): 3160 nM
- IC50 ([11]; Homo sapiens): 3890 nM
- IC50 [12]: 1360 nM
- IC50 [13]: 12000 nM
- IC50 [14]: 3720 nM

Molecule: mayamycin A [Mayamycin (1)]
- MIC [15]: 32 µg/mL
- MIC [16]: 8 µg/mL
- MIC [17]: 8 µg/mL
- MIC [18]: 32 µg/mL
- MIC [19]: 16 µg/mL
- MIC [20]: 32 µg/mL
- MIC [21]: 1 µg/mL
- MIC [22]: 8 µg/mL
- MIC [23]: 16 µg/mL
- MIC [24]: 16 µg/mL
- MIC [25]: 16 µg/mL
- MIC [26]: 16 µg/mL
- MIC [27]: 16 µg/mL
- MIC [28]: 16 µg/mL
- MIC [29]: 16 µg/mL
- MIC [30]: 16 µg/mL
- MIC [31]: 8 µg/mL
- IC50 [2]: 910 nM
- IC50 [3]: 1050 nM
- IC50 [4]: 1080 nM
- IC50 [5]: 1050 nM
- IC50 [6]: 2120 nM
- IC50 [7]: 1650 nM
- IC50 [8]: 1880 nM
- selective index ([8]; Bt-549 versus normal breast cells): 3.18
- IC50 [9]: 600 nM
- selective index ([9]; MDA-MB-231 versus normal breast cells): 9.97
- IC50 [10]: 2220 nM
- selective index ([10]; MDA-MB-468 versus normal breast cells): 2.69
- IC50 [32]: 2100 nM
- IC50 [11]: 2640 nM
- IC50 [12]: 2310 nM
- IC50 [13]: 1680 nM
- IC50 [14]: 5980 nM
